Assay results as given in patent US9090897B2, “Production of IFN-lambda by conventional dendritic cells” (Bavarian Nordic A/S, priority 2009, dated 2015).
“Also recorded” adds a separate entry of the source.

How the values were obtained:
eCD8α cDCs = assay: In vitro stimulation of FL expanded ex-vivo isolated splenic eCD8α cDCs, IFN-λ; assay type: cell-based, mouse; conditions: 5×10^5/ml, IL-3+GM-CSF+IL-4+IFN-γ, 100 μg/ml, 18 h
Method: (§1) FIG. 13 depicts that in vivo FL expanded CD8α+cDCs and eCD8α cDCs selectively produce IFN-λ to poly AU in vitro. Highly purified FL expanded ex-vivo isolated splenic 5×10^5/ml were stimulated in the presence of IL-3+GM-CSF+IL-4+IFN-γ with either poly IC (100 μg/ml) or poly AU (100 μg/ml). After 18 h supernatants were analyzed for IFN-λ.
(§2) To see if the IFN-λ production to poly AU seen in vivo would correspond with the same cells as in response to poly IC we enhanced the amount of DC in mice with FL treatment and sorted CD8α+ cDCs, eCD8α cDCs and CD11b+/CD172a+cDCs. Those cells were stimulated with poly IC or poly AU.

CD8-cDCs = assay: In vitro stimulation of sorted splenic CD8- cDCs, IFN-λ ELISA; assay type: cell-based, mouse; conditions: 5×10^5/ml, IL-3 and GM-CSF, 18 h
Excerpt: (§3) DC subsets were isolated from pooled mouse spleens as described (Vremec et al., 2007). Briefly, spleens were chopped, digested with collagenase (Worthington Biochemical) and DNase (Roche) at room temperature, and treated with EDTA. Low-density cells were enriched by density centrifugation; non-DC lineage cells were coated with mAbs (anti-CD3, KT3-1.1; anti-Thy-1, T24/31.7; anti Gr-1, 1A8; anti-CD19, ID3; anti-erythrocytes, TER119 and anti-NK cells, DX5) and depleted using anti-rat Ig magnetic beads (Qiagen). Dead cells were excluded by propidium iodide staining. cDC populations were sorted based on the expression of CD11c, CD45RA, CD4, CD8a and CD172a and pDCs were purified based on CD11c, CD45RA, and CD172a (all BD Biosciences) expression. Cell sorting was performed on a FACS Aria instrument (BD Biosciences).
(§4) Cells were stimulated in vitro with single TLR agonists or combinations thereof containing 10 μg/ml Pam3Cys (InvivoGen), 100 μg/ml poly IC (Axxora), 10 μg/ml LPS (E. coli; Sigma-Aldrich or Axxora), 10 μg/ml R848 (Axxora), 1 μM CpG-1668 or CpG-2216 (TIB-Molbiol), 1 μg/ml profilin of toxoplasma (Axxora). […] IFN-λ in supernatants was analyzed by ELISA and IL-12p70 was determined by FlowCytomix bead assay (Bender Medsystems) according to manufacturer's protocol.

mice [1] = assay: In vivo challenge (i.v.), serum IFN-λ and IFN-α by ELISA; parameters: species or system mouse; conditions: 100 μg i.v.
mice [2] = assay: as above; parameters: species or system mouse; conditions: 100 μg i.v.; remark: listed apart in the source
Method: Mice were injected i.v. into the lateral tail vein with 100 μg poly IC (Axxora) and serum was collected 3-4 h after challenge. Sera were pre-diluted 1/5, […] was analyzed by ELISA as described (Hochrein et al., 2004). IFN-λ was determined by an IFN-λ3 (IL-28B) ELISA (R&D Systems).

BDCA3+ DC = assay: Stimulation of human BDCA3+ DC, IFN-λ1 and IFN-λ2 ELISA; assay type: cell-based; conditions: BDCA3 positive cells vs BDCA1 cells, all donors, 100 μg/ml, 18-24 h
Method: (§5) PBMC were prepared from peripheral blood of non-atopic blood donors by density gradient centrifugation and BDCA3+ DC were purified from PBMC using the BDCA3/CD141+Dendritic Cell Isolation Kit (Miltenyi Biotech) on an AutoMACS™ separator. Subsequently, BDCA1+ DC were purified from the BDCA3-depleted PBMC using the BDCA1/CD1c+ Dendritic Cell Isolation Kit (Miltenyi Biotech). […] After stimulation for 18-24 h the supernatants were analyzed for IFN-λ1 and IFN-λ2 by ELISA according to manufacturer's recommendations (Tebu-bio).

FLDC-derived eCD8+ cDCs = assay: In vitro stimulation of sorted FLDC-derived eCD8+ cDCs, IFN-λ ELISA; assay type: cell-based, mouse
Method: FL bone marrow culture derived dendritic cells (FLDC) were prepared as described (Hochrein et al., 2004). pDCs and eCD8+ and eCD8^− cDC subsets were sorted based on the expression of CD11c, CD45R, CD11b, CD24, and CD172a or CD103 (all BD Biosciences).
(§6) Cells were stimulated in vitro with single TLR agonists or combinations thereof containing 10 μg/ml Pam3Cys (InvivoGen), 100 μg/ml poly IC (Axxora), 10 μg/ml LPS (E. coli; Sigma-Aldrich or Axxora), 10 μg/ml R848 (Axxora), 1 μM CpG-1668 or CpG-2216 (TIB-Molbiol), 1 μg/ml profilin of toxoplasma (Axxora). The recombinant cytokines mouse-IL-3, mouse-IL-4, rat-IFN-γ (PeproTech) and mouse-GM-CSF (Tebu-Bio) (10 ng/ml each) were added as indicated. The addition of IL-3 and GM-CSF was based on previous observations that GM-CSF promoted the production of IL-12p70 and that the combination of IL-3 and GM-CSF increased virus induced IFN-λ production in pDCs and cDCs (Hochrein et al., 2000; Hochrein et al., 2004). As source of a parapoxvirus Zylexis, which is used for veterinary purposes was purchased from a pharmacy. HSV-1, in replication deficient form known as disc HSV-1 (HSV-1d) was used as described (Hochrein et al., 2004). IFN-λ in supernatants was analyzed by ELISA and IL-12p70 was determined by FlowCytomix bead assay (Bender Medsystems) according to manufacturer's protocol.

PBMC = assay: Stimulation of human PBMC, IFN-λ1 and IFN-λ2 ELISA; assay type: cell-based; conditions: PBMCs and fractions of DC-enriched PBMCs, IL-3, GM-CSF and IFN-γ, 18-24 h
Method: as §5

CD8α+ cDCs = assay: In vitro stimulation of FL expanded ex-vivo isolated splenic CD8α+ cDCs, IFN-λ; assay type: cell-based, mouse; conditions: 5×10^5/ml, IL-3+GM-CSF+IL-4+IFN-γ, 100 μg/ml, 18 h
Method: as §1, §2

splenic CD8+ cDC = assay: In vitro stimulation of sorted splenic CD8+ cDCs, cytokines in supernatant (IFN-λ ELISA, IL-12p70 FlowCytomix); assay type: cell-based, mouse; conditions: 5×10^5/ml, IL-3 and GM-CSF, supernatants after 18 h
Excerpt: as §3, §6

splenic pDCs = assay: In vitro stimulation of sorted splenic pDCs, IFN-λ ELISA; assay type: cell-based, mouse; conditions: 5×10^5/ml, IL-3 and GM-CSF, 18 h
Excerpt: as §3, §4

## Polyinosinic:polycytidylic acid [poly IC]
eCD8α cDCs
  IFN-λ production: able to produce IFN-λ
CD8-cDCs
  IFN-λ production: largely unable to participate in IFN-λ production
Mice [1]; Cardif-KO mice, 3-4 h
  serum IFN-α: complete abrogation of serum IFN-α
  serum IFN-λ: no effects on IFN-λ production
Mice [1]; FL-KO mice, 3-4 h
  Serum levels of IFN-α: remained easily detectable
Mice [1]; IFN-AR-KO vs WT mice, 3-4 h
  systemic production of IFN-α: largely dependent on the presence of IFN-AR
  systemic production of IFN-λ: largely dependent on the presence of IFN-AR
Mice [1]; IRF7-KO mice, 3-4 h
  serum IFN-α: almost abrogated
Mice [1]; MyD88-KO mice, 3-4 h
  serum IFN-α: Large amounts
  serum IFN-λ: Large amounts
Mice [1]; TLR3-KO mice, 3-4 h
  serum IFN-α: no effect on the production of IFN-α
Mice [1]; WT mice, sera after 3-4 h
  Serum levels of IFN-α: easily detectable; also recorded: Large amounts
Mice [2]; BM reconstituted, IL-15R-KO, RAG1-KO, FL-KO, IRF8-KO vs WT mice (FIG. 16), 3-4 h
  serum IFN-λ, dependence on hematopoietic cells, FL and IRF8: depends on hematopoietic cells, FL and IRF8
Mice [2]; FL-KO mice, 3-4 h
  Serum levels of IFN-λ: almost abrogated
Mice [2]; IRF7-KO mice, 3-4 h
  serum IFN-λ: largely reduced
Mice [2]; TLR3-KO mice, 3-4 h
  serum IFN-λ: abrogated IFN-λ production
Mice [2]; WT mice, sera after 3-4 h
  Serum levels of IFN-λ: easily detectable; also recorded: Large amounts
Mice [2]; mice of indicated genotype (FIG. 15), 3-4 h
  serum IFN-λ, dependence on IRF3 and IRF7: depends on IRF3 and IRF7
BDCA3+ DC
  IFN-λ1 production: major producers
  IFN-λ2 production: major producers
FLDC-derived eCD8+ cDCs; WT eCD8+ cDCs, 18 h
  IFN-λ production: produced IFN-λ
FLDC-derived eCD8+ cDCs; eCD8+ cDCs generated from Cardif-, MyD88- or TLR3-KO mice
  IFN-λ production, dependence on Cardif, MyD88, TLR3: involvement of TLR3 but not Cardif or MyD88
PBMC
  IFN-λ1 (IL-29) production: induced
  IFN-λ2 (IL-28A) production: induced
CD8α+ cDCs
  IFN-λ production: able to produce IFN-λ
Splenic CD8+ cDC
  IFN-λ production: major producers; also recorded: induced IFN-λ
  IL-12p70 production: not IL-12p70 production
Splenic pDCs
  IFN-λ production: largely unable to participate in IFN-λ production
